In ChEMBL document CHEMBL1145877, “5H-8,9-dimethoxy-5-(2-N,N-dimethylaminoethyl)dibenzo[c,h][1,6]naphthyridin-6-ones and related compounds as TOP1-targeting agents: influence of structure on the ternary cleavable complex formation” (Bioorg Med Chem Lett, 2003):

Target: T1, DNA topoisomerase 1 (Homo sapiens) (UniProt P11387)
T1 sequence (whole entry): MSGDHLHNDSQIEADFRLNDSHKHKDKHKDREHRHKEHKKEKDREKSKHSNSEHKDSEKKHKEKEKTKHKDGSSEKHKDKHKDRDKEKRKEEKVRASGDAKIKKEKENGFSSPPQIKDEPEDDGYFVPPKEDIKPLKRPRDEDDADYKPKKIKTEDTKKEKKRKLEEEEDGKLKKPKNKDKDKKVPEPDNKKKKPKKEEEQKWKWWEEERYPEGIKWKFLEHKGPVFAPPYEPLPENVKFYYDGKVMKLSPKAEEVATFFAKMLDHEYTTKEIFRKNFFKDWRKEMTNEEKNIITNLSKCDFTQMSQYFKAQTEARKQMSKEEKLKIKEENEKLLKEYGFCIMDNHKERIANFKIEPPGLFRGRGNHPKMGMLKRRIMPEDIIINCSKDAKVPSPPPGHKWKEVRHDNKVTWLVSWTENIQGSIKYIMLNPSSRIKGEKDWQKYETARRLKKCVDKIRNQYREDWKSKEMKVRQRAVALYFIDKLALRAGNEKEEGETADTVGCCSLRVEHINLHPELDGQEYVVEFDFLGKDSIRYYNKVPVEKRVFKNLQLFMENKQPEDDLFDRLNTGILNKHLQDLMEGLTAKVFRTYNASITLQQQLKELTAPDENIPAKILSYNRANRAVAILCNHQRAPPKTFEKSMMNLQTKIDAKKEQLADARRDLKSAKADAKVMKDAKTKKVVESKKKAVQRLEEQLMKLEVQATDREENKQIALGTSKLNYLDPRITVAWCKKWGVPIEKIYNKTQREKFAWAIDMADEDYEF
Experiment: Concentration relative to topotecan for topoisomerase DNA topoisomerase I cleavage

## COc1cc2c(=O)n(CCN(C)C)c3c4ccc([N+](=O)[O-])cc4ncc3c2cc1OC
  REC: 6

## COc1cc2c(=O)n(CCN(C)C)c3c4cc([N+](=O)[O-])ccc4ncc3c2cc1OC
  REC: 2

## COc1cc2c(=O)n(CCN(C)C)c3c4cc5c(cc4nnc3c2cc1OC)OCO5
  REC: 0.3

## COc1cc2c(cc1OC)-c1cnc3cc4c(cc3c1N(CCN(C)C)C2)OCO4
  REC: 0.8

## COc1cc2c(=O)n(CCN(C)C)c3c(cnc4cccc([N+](=O)[O-])c43)c2cc1OC
  REC: 300

## COc1cc2c(=O)n(CCN(C)C)c3c4cccc([N+](=O)[O-])c4ncc3c2cc1OC
  REC: 9

## COc1cc2c(=O)n(CCCN(C)C)c3c4cc5c(cc4ncc3c2cc1OC)OCO5
  REC: 1
